Consider 71 molecules from PubChem BioAssay AID179 (DTP/NCI, 2004).

For orientation: EC50 means the concentration giving half of the maximal effect. One may read the IC50 as the midpoint of a concentration-inhibition curve.

The test relates to CEM cells HIV-1 protection, formazan growth assay. The test can be described thus: NCI AIDS Antiviral Assay. To be noted: for IC50: measured here: growth of uninfected CEM cells. The method in brief: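 Five concentrations of each compound were applied to infected and uninfected human CEM cells. Protection from HIV-1 was judged from growth measured with a soluble formazan assay.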

Calls of active or inactive are those of the source.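 How the source made its calls: active means compounds giving half or more protection of infected cells from virus-caused growth loss, again on retest; inactive means the rest.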

On to `O=C(O)CSc1n[nH]c(Cc2ccccc2)n1`, for which the EC50 was more than 1000 µM and the IC50 is more than 1000 µM.
For the molecule `CN(C)c1ccc(/C=c2\sc3nnc(-c4cccnc4)n3c2=O)cc1`, the EC50 is more than 20.9 µM and the IC50 was more than 20.9 µM.
With `O=S(=O)(c1ccccc1)N1CC2CC(Br)C(Br)CC21` (stereo not drawn), the EC50 was more than 45.7 µM and the IC50 is more than 45.7 µM.
For the molecule `CCCCCC(=O)Cc1cc(OC)cc2c1C(=O)Oc1cc(O)c(C(=O)O)c(CC(=O)CCCCC)c1O2`, the EC50 was more than 339 µM and the half-inhibitory concentration (IC50) stood at 112 µM.
For the molecule `Cc1cn2c(n1)sc1ccccc12`, the EC50 is more than 200 µM and the concentration for half-maximal inhibition (IC50) is more than 200 µM.
As for `CCOC(=O)/C(=C/c1ccc(OC)c(OC)c1)C(=O)c1ccccc1`, the EC50 was more than 75.9 µM and the half-inhibitory concentration (IC50) turned out to be 40.7 µM.
For the molecule `CCCCOC(=O)c1c2nc3c(C(=O)OCCCC)ccc(C)c3oc-2c(C)c(=O)c1NC(C)=O`, the EC50 is more than 151 µM and the IC50 was determined as 24.5 µM.
Regarding `CC(C)=CCC[C@@H](C)c1c(O)c(O)c(C)c2nc3ccccc3nc12`, the EC50 is more than 200 µM and the 50% inhibitory concentration (IC50) was 5.89 µM.
`Cc1oc2c(c1C)S(=O)(=O)C(C#N)=CN2`: the EC50 is more than 200 µM and the half-inhibitory concentration (IC50) was more than 200 µM.
As to `BrCc1cccc(C[P+](c2ccccc2)(c2ccccc2)c2ccccc2)c1`, the EC50 is more than 200 µM and the IC50 was 1.17 µM.
The corresponding values for `O=C(CNC(=O)Nc1ccc(NC(=O)NCC(=O)Nc2ccc(C3=NCCN3)cc2)cc1)Nc1ccc(C2=NCCN2)cc1` are 81.3 µM and more than 200 µM.
Regarding `O=[P+](O)c1cccs1`, the result was inactive.
`COc1cccc(N2C(Cl)C(=O)C2c2c[nH]c3ccccc23)c1` (stereo not drawn): the EC50 was more than 79.4 µM and the IC50 was more than 79.4 µM.
Regarding `N#CC(/C(=N/NC(N)=S)C(=O)Nc1cccc(Cl)c1)c1ccccc1` (stereo not drawn), the EC50 was more than 19.5 µM and the half-maximal inhibitory concentration (IC50) was 10.5 µM.
As for `COC(=O)NC12CC3CC(C(C)O1)C2N(Cc1ccccc1)C3` (stereo not drawn), the EC50 was more than 200 µM and the half-inhibitory concentration (IC50) was more than 200 µM.
In the case of `CCC1C(=O)OC2OC(c3ccccc3)(c3ccccc3)NC21` (stereo not drawn), the EC50 was more than 200 µM and the half-inhibitory concentration (IC50) is more than 100 µM.
The corresponding values for `CN1C(=O)[C@@H]2N(N(C)C1=O)[C@@]1(Br)C(=O)NC(=O)[C@@]21Br` are 102 µM and 148 µM.
On to `CCOC(=O)CCC(NC(=O)c1ccc(Nc2nc3cc(C(F)(F)F)ccc3nc2-c2ccccc2)cc1)C(=O)OCC` (stereo not drawn), for which the EC50 was more than 200 µM and the IC50 is 8.13 µM.
With `CSCC1Cc2c(cc3c(c2O)C(=O)c2ccccc2C3=O)O1` (stereo not drawn), the outcome was inactive.
With `CC1(C)CC(=O)c2c(ccc(C(=O)C[C@@H](N)CO)c2N)O1`, the outcome was inactive.
In the case of `CCOC(=O)C1SC(=Nc2ccc(C)c(C)c2)N=C1C` (stereo not drawn), the EC50 was more than 18.2 µM and the IC50 is more than 18.2 µM.
As for `C=C1C(=O)OC2CC(C)C3CC(O)OC(OCC)C3(C)CC12` (stereo not drawn), the EC50 is more than 83.2 µM and the 50% inhibitory concentration (IC50) came to 15.5 µM.
In the case of `O=S(=O)(SC(Cl)(Cl)Cl)c1cccc(S(=O)(=O)c2cccc(S(=O)(=O)SC(Cl)(Cl)Cl)c2)c1`, the EC50 is more than 200 µM and the IC50 was more than 200 µM.
As for `NC(=O)CCC(NC(=O)C(F)(F)F)C(=O)O` (stereo not drawn), the result was inactive.
In the case of `C1CC[C@H]2SSC3CCCC[C@H]3SSC2C1` (stereo partly drawn), the EC50 is more than 17.8 µM and the half-maximal inhibitory concentration (IC50) is more than 17.8 µM.
With `CC(C)=CCC/C(C)=C/CC/C(C)=C/CC/C=C(\C)CC/C=C(\C)CCC1SC1(C)C` (stereo not drawn), the EC50 is more than 200 µM and the IC50 is more than 200 µM.
For `NNc1ncnc(NN)c1Br`, the EC50 was more than 200 µM and the half-inhibitory concentration (IC50) worked out at 56.2 µM.
With `COc1ccc2c3c([nH]c2c1)CCN(Cc1ccccc1)C3`, the EC50 was more than 200 µM and the 50% inhibitory concentration (IC50) was 45.7 µM.
The corresponding values for `CN(C)Cc1c(O)ccc2ccccc12` are more than 468 µM and 245 µM.
In the case of `O=C(c1cccs1)N(C(=O)N1CCCCC1)c1ccccc1`, the EC50 was more than 200 µM and the concentration for half-maximal inhibition (IC50) turned out to be 112 µM.
As for `N#Cc1c(N2CCCC2)ncn(Cc2ccccc2)c1=O`, the EC50 was more than 200 µM and the IC50 was more than 200 µM.
Regarding `OCc1cccnc1`, the EC50 is more than 200 µM and the IC50 is more than 200 µM.
For `OCC1OC(NC(=S)NCCC(F)(F)C(F)(F)C(F)(F)C(F)(F)C(F)(F)C(F)(F)F)C(O)C(O)C1O` (stereo not drawn), the EC50 was more than 200 µM and the IC50 is 120 µM.
On to `COc1c(C)c(O)c2c(c1C)OC(c1ccccc1)CC2=O` (stereo not drawn), for which the EC50 was more than 17.4 µM and the IC50 was more than 17.4 µM.
Consider `O=C1COC(c2ccccc2O)=NN1CCN1CCOCC1`, for which the EC50 is more than 105 µM and the IC50 was more than 105 µM.
Turning to `COCN1C(=O)[C@@H]2CCCN2C(=O)c2cc([N+](=O)[O-])ccc21`, the EC50 is more than 200 µM and the half-inhibitory concentration (IC50) was 102 µM.
On to `CCOC(=O)c1cc(C)nc2c1c(=O)n(-c1ccccc1)c(=O)n2CCCCN1CCN(c2ccccc2)CC1`, for which the EC50 is more than 200 µM and the IC50 was more than 200 µM.
Regarding `C(=N\Nc1ccccc1)/c1nc2ccccc2nc1/C=N/Nc1ccccc1`, the EC50 is more than 5.5 µM and the IC50 is more than 5.5 µM.
For the molecule `C=CCNC1=C2C[C@@H](C)C[C@@H](OC)C(OC(=O)CCCN(C)C)[C@H](C)/C=C(\C)[C@@H](OC(N)=O)[C@H](OC)/C=C\C=C(/C)C(=O)NC(=CC1=O)C2=O` (stereo partly drawn), the EC50 was more than 200 µM and the IC50 came to 11 µM.
Regarding `Cc1c(Cl)ccc2c1NC(=O)C2(O)CC(=O)c1ccc(Cl)cc1Cl` (stereo not drawn), the EC50 was more than 0.708 µM and the IC50 was more than 0.708 µM.
For the molecule `O=C1c2ccc3c4ccccc4n(-c4ccccc4)c3c2C(=O)N1c1ccc(Cl)cc1`, the outcome was inactive.
Regarding `COc1ccc(C(=O)C(c2ccc(OC)cc2)C2(O)C(=O)Nc3ccc([N+](=O)[O-])cc32)cc1` (stereo not drawn), the EC50 was more than 79.4 µM and the IC50 is more than 79.4 µM.
Take `CCCNC1=C2C[C@@H](C)C[C@@H](OC)[C@@H](OC(=O)CCCN)[C@H](C)/C=C(\C)[C@@H](OC(N)=O)[C@H](OC)/C=C\C=C(/C)C(=O)NC(=CC1=O)C2=O`: the EC50 is more than 200 µM and the IC50 is 11.5 µM.
As for `COC(=O)c1ccccc1C1CN=NC12Cc1c(C)cc(C)cc1C2=O` (stereo not drawn), the EC50 is more than 174 µM and the IC50 came out at 28.2 µM.
The corresponding values for `Cc1c(-c2ccccc2)[nH]n(C2=NCCN2)c1=O` are more than 200 µM and 120 µM.
In the case of `COc1ccc(C(=CCC(C)C2CCC3[C@@H]4C(OC(C)=O)CC5CC(OC(C)=O)CC[C@]5(C)C4CC(OC(C)=O)[C@]23C)c2ccc(OC)cc2)cc1` (stereo partly drawn), the EC50 is more than 200 µM and the IC50 is 95.5 µM.
For `CN(C)c1nn2c(-c3ccccc3)nnc2o1`, the EC50 is more than 200 µM and the IC50 was more than 200 µM.
Take `CCOC(=O)c1nc2cc(C(F)(F)F)ccc2nc1Oc1ccc(F)cc1`: the EC50 was more than 200 µM and the IC50 is 186 µM.
As for `O=C1C2=C(c3ccccc31)C(c1ccccc1)N1C(=O)CSC1=N2` (stereo not drawn), the EC50 is more than 77.6 µM and the IC50 is 34.7 µM.
As for `COC(OC)[C@@H]1OC[C@H](n2cnc3c(N)ncnc32)[C@H]1O`, the EC50 is more than 200 µM and the IC50 is more than 200 µM.
On to `COc1ccc(C(CC(=O)c2ccc3c(c2)OCO3)C(=O)O)cc1OC` (stereo not drawn), for which the result was inactive.
For the molecule `COc1ccc(/C=C2\CCc3ccccc3C2=O)cc1OC`, the EC50 was more than 33.9 µM and the IC50 was more than 33.9 µM.
As for `COC(=O)[C@H](Cc1c[nH]c2ccccc12)NP(=O)(OC)OCC1OC(n2cc(C)c(=O)[nH]c2=O)CC1N=[N+]=[N-]` (stereo partly drawn), the EC50 was 69.2 µM and the concentration for half-maximal inhibition (IC50) is more than 200 µM.
On to `CCOc1ccc(N=Cc2cccc3cccnc23)cc1`, for which the result was inactive.
On to `N#C/C(=C\c1ccc(C#N)cc1)C(=O)c1ccccc1`, for which the EC50 was more than 97.7 µM and the IC50 is 41.7 µM.
On to `O=C(CC(C(=O)c1ccco1)c1ccco1)c1ccco1` (stereo not drawn), for which the EC50 is more than 200 µM and the IC50 was 145 µM.
The corresponding values for `O=c1[nH][nH]c(=O)c2nc(Nc3ccco3)ncc12` are more than 240 µM and more than 240 µM.
The corresponding values for `Cn1nc(-c2ccc(Cl)cc2)[n+]([O-])c2c(=O)n(C)c(=O)nc1-2` are more than 200 µM and 3.31 µM.
The corresponding values for `Cc1ccc(C(=O)NC(C)(C)C)cc1N=NN(C)C` are more than 138 µM and more than 138 µM.
On to `Cc1cc(N(CCC#N)CCC#N)ccc1N=Nc1ccc([N+](=O)[O-])cc1`, for which the EC50 is more than 14.5 µM and the 50% inhibitory concentration (IC50) was more than 14.5 µM.
As to `COc1ccccc1/C=C/C(=O)c1sc(-c2cccnc2)nc1C`, the EC50 is more than 15.5 µM and the half-maximal inhibitory concentration (IC50) was more than 15.5 µM.
Consider `Cc1nc2ccccc2c(C)[n+]1[O-]`, for which the EC50 was more than 200 µM and the IC50 is more than 200 µM.
For `Cc1cc(NC(=O)c2ccc(N)cc2)ccc1N=Nc1ccc2c(O)c(N=Nc3ccc(S(=O)(=O)O)cc3C)c(S(=O)(=O)O)cc2c1`, the concentration giving a half-maximal response (EC50) was 34.7 µM and the IC50 was more than 200 µM.
Regarding `C[C@H]1OC(=O)[C@@H]2N=NN(Cc3ccccc3)[C@H]12`, the outcome was inactive.
Regarding `Cc1cc(=S)oc2c3c(ccc12)OC(C)(C)[C@H](OC(=O)C12CCC(C)(C(=O)O1)C2(C)C)[C@@H]3OC(=O)C12CCC(C)(C(=O)O1)C2(C)C` (stereo partly drawn), the EC50 was 0.0575 µM and the IC50 came to 20 µM.
The corresponding values for `C/C(CCn1[nH]c(=O)ccc1=O)=N\O` are more than 1070 µM and more than 1070 µM.
As for `COc1ccc(/S(C)=N/S(=O)(=O)c2ccc(C)cc2)cc1` (stereo not drawn), the EC50 is more than 288 µM and the IC50 came to 263 µM.
With `CCOC(=O)/C(=C\c1ccc(OC)cc1)P(=O)(OCC)OCC`, the EC50 is more than 380 µM and the concentration for half-maximal inhibition (IC50) was 77.6 µM.
Regarding `O=C(NO)c1ccc(C(=O)NO)c(Br)c1`, the outcome was inactive.
For `CCSC1=N/C(=C/c2ccccc2O)C(Cl)=N1`, the EC50 was 50.1 µM and the IC50 is more than 200 µM.
For `CN(C)C1C(=O)C(C(=O)NCN2CCOB(c3ccccc3)OCC2)=C(O)C2(O)C(O)=C3C(=O)C4C(O)=CC=CC4C(C)(O)C3CC12` (stereo not drawn), the EC50 was 31.6 µM and the IC50 is 39.8 µM.
